Article PMC7385938 (Cell Stress & Chaperones, 2020)

Target: HSPA5-FL (Homo sapiens, UniProt P11021)
Assay: ITC, liposomes titrated into protein
Type: binding

Sequence of HSPA5-FL (P11021 25-654): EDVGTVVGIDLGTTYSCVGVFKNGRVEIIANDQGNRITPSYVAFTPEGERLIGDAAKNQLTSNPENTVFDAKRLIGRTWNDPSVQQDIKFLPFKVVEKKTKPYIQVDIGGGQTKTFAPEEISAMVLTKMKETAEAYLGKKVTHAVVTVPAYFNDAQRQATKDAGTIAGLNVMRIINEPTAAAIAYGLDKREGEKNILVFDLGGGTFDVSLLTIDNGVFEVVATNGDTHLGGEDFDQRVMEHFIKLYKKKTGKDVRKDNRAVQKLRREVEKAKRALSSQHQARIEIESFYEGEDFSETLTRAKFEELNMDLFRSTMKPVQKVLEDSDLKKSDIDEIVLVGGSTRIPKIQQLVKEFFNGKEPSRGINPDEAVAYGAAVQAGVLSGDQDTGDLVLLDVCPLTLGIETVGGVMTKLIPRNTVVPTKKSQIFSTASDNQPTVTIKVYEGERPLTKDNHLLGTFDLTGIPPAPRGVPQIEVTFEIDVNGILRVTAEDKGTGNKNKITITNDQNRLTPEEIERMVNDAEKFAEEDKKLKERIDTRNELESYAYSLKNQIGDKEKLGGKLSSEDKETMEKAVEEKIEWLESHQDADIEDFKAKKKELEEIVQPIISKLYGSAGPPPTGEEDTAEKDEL

Row | Kd [nM] | SMILES
1 | 3500 ± 800 | CCCCCCCC/C=C\CCCCCCCC(=O)O[C@H](COC(=O)CCCCCCCCCCCCCCC)COP(=O)(O)OC[C@H](N)C(=O)O [POPS]
2 | 1600 ± 500 | CCCCCCCCCCCCCC(=O)OC[C@H](COP(=O)(O)OCC(O)COP(=O)(O)OC[C@@H](COC(=O)CCCCCCCCCCCCC)OC(=O)CCCCCCCCCCCCC)OC(=O)CCCCCCCCCCCCC (some centres unmarked) [CL, 1′,3′-bis[1,2-dimyristoyl-sn-glycero-3-phospho]-glycerol]
